Assay results: publication PMC8799869, “D-enantiomers of CATH-2 enhance the response of macrophages against Streptococcus suis serotype 2” (Journal of Advanced Research, 2021)
Values after ≈ are worked out from the molar mass of the structure shown. Read-outs that look alike come from different tables or passages of the source. Where a SMILES comes first, the peptide text is derived from it. Where no end group is shown, it is not given here. [ ]: non-standard residue; d: D form.

Experiments:
[1] = previously shown; read-out: dissociation coefficient to LPS; cited from earlier work
Procedure: Inhibition of LPS-induced, and to a lesser extent LTA-induced activation, is a widely studied immunomodulatory aspect of cathelicidins. […] The dissociation coefficient to LTA is with 2–10 µM much higher than previously shown for L-CATH-2 to LPS with a dissociation coefficient of 0.08 µM, [32] indicating a stronger binding to LPS than to LTA. However, since D-CATH-2 was highly efficient at inhibiting LTA-induced activation, it might also be that the inh ...

[2] = intravenous administration; blood and peritoneum; cited from earlier work
Description: (§1) In this study injection of D-C(1–21) reduced disease severity and increased the survival rate, although the differ ...

[3] = test system: S. suis serotype 2 strain P1/7; type: cell-based, Streptococcus suis; conditions: 3 h
Procedure: (§2) S. suis serotype 2 strains P1/7, D282, S735, and OV625 were grown into mid-logarithmic phase for 3–4 h at 37 °C in THB, after which bacteria were centrifuged at 1200×g for 10 min at 4 °C and resuspended in fresh THB. Bacterial concentration was determined by measuring optical density at 620 nm with an OD of 1.0 being equivalent to 1x10^8 colony forming units (CFU)/mL. 1x10^6 CFU/mL S. suis was mixed with different concentrations of D-CATH-2 and derivatives (0.63 – 40 µM) and incubated for 3 h at 37 °C. Ten-fold dilutions were prepared and spread in Tryptic Soy agar (TSA) plates containing 5% (v/v) defibrinated sheep blood (Oxoid) and colonies were allowed to grow for 48 h. Minimal Bactericidal Concentration (MBC) was defined as ≤100 CFU/mL (2 log CFU/mL), the detection limit of the assay.

[4] = test system: S. suis serotype 2 strain D282; type: cell-based, Streptococcus suis; conditions: 3 h
Procedure: as §2

[5] = test system: S. suis serotype 2 strain OV625; type: cell-based, Streptococcus suis; conditions: 3 h
Procedure: as §2

[6] = test system: S. suis serotype 2 strain S735; type: cell-based, Streptococcus suis; conditions: 3 h
Procedure: as §2

[7] = Isothermal titration calorimetry (ITC), peptide binding to LTA; parameters: species or system S. aureus; conditions: 200 µM peptide titrated into 37.2 µM LTA-SA, MilliQ:dPBS 3:1, 37 °C, three experiments averaged, independent model, read-out: Kd, dissociation coefficient
Procedure: The interaction between the D-CATH-2 peptides and LTA-SA was tested using isothermal titration calorimetry (ITC). All ITC experiments were performed on a Low Volume NanoITC (TA instruments - Waters LLC, New Castle, USA). Peptide solution or 37.2 µM LTA-SA was prepared in MilliQ:dPBS (Gibco) in a 3:1 ratio. The chamber was filled with 164 µL LTA-SA and the peptide was loaded in the 50 µL syringe. Every 300 s, 1.99 µL peptide was titrated into the chamber at 37 °C. Data was analyzed using the Nano Analyze software (TA instruments-Waters LLC). The data of three experiments was averaged and an independent model was used to determine the peptide-LTA interaction.

E. coli = conditions: in ovo administration three days before hatch; cited from earlier work
Description: as §1

S. suis P1/7 = test: In vivo prophylactic S. suis P1/7 infection model; parameters: species or system mouse
Procedure: Upon arrival, mice were allowed to acclimatize for at least 7 days before the start of the experiment. The experiment was performed as depicted in Fig. 5A. The experiment was repeated twice to obtain in total 4 mice in the control groups and 12 mice in the infection groups. At day 1, mice were subcutaneously injected in the neck region with 1 mg/kg D-C(1–21) in PBS/cholesterol or with PBS/cholesterol alone. Cholesterol was added 5% v/v, 2 mg/ml in ethanol. The peptide and control groups were blinded to avoid any influence by the researchers. After 24 h (group 1) or after 7 days (group 2), mice were intraperitoneally infected with 10^7 CFU S. suis P1/7 in THB or with THB alone as control. 24 h after infection, a few drops of blood were collected via cheek puncture for bacterial count. During the infection phase of the experiment, mice were checked every 12 h in the acute phase of disease (first 48 h) and thereafter daily until the end of the study. A cumulative clinical score was given to the mice as measure of disease using several parameters as depicted in Table 4, according to Seitz et al.. When a mouse obtained a clinical score of 2 for a minimum of 3 out of 8 scoring points two days in a row, or in case of severe weight loss (>20%), the mouse was euthanized for animal welfare reasons (humane end point (HEP)) and the organs were collected for bacterial counts as described hereafter. Seven days post infection all mice were sacrificed for further analysis. Mice were anesthetized using isoflurane and 1 mL blood was drawn via heart puncture, followed by cervical dislocation. The peritoneum was flushed with 5 mL PBS/0.5 mM EDTA and diluted in 10 mL ice cold PBS/0.5% FCS. Spleen, lungs, liver, lymph nodes (axillary, inguinal, and mesenteric), brain, kidney and bone marrow were collected and stored in ice cold PBS. All organs, except the bone marrow and lymph nodes were weighed using a Sartorius microbalance. The peritoneal lavage (PTL) samples were counted using the Countess II Automated Cell Counter (Invitrogen, CA, USA). The lungs, liver, brain and kidney were meshed through a 40 µm filter (BD Biosciences) with 5 mL PBS to obtain single cell suspensions. Spleen and lymph nodes were digested with digestion buffer (1.5 WU/mL liberase TL grade, 100 Units/ml recombinant DNAse I, both Roche) for 30 min at 37 °C and meshed through a 40 µm filter using 5 mL PBS/0.5 mM EDTA. The red blood cells of the blood and spleen were lysed using an isotonic ammonium chloride buffer (155 mM NH4Cl, 10 mM KHCO3, 0.1 mM EDTA) for 5–10 min on ice, washed 1x with PBS and were resuspended in FACS buffer (PBS/0.5% BSA). Bone marrow samples were flushed out the femur and tibia of both legs with 5 mL PBS and filtered through a 40 µm filter. A sample of the blood, bone marrow, spleen, peritoneal lavage and lymph nodes was taken and stained for 30 min with different antibody panels (Table 1) and measured using the BD FACS Canto-II and analyzed with FlowJo V8. Of the lungs, liver, brain, kidney, spleen and peritoneal lavage samples, a 10-fold serial dilution was prepared and the samples were plated on TSA plates containing 5% (v/v) defibrinated sheep blood. The colonies were allowed to grow for 48 h at 37 °C. The number of colonies were counted, with ≤ 100 CFU/mL (2 log CFU/mL) as detection limit of the assay and calculated as CFU/mg organ.

murine BMDMs = test: BMDM differentiation after peptide exposure at day 1, flow cytometry; type: cell-based, mouse; conditions: 1.25 µM peptide at day 1 of culture for 24 h
Procedure: Murine bone marrow cells, isolated from the femur and tibia of both hindlegs, were stored in fetal calf serum (FCS) (Corning, NY, USA) containing 10% DMSO (Sigma-Aldrich, MO, USA) in liquid nitrogen. Cells were grown at a concentration of 5x10^5 cells/mL in RPMI-1640 without phenol red (Thermo Fisher Scientific, MA, USA) supplemented with 10% FCS and 1% penicillin/streptomycin (Thermo Fisher Scientific). Bone marrow-derived macrophages (BMDM) and bone marrow-derived dendritic cells (BMDC) were cultured by adding 20 ng/mL murine recombinant M−CSF or GM-CSF (PeproTech, NJ, USA) respectively. Where indicated, cells were supplemented with 1.25 µM peptide at day 1, which was replaced by fresh medium at day 2. The medium of all cells was replaced by fresh medium without antibiotics at day 3. At day 6 cells were stimulated with 1 µg/mL LTA from S. aureus (LTA-SA) (Invivogen, CA, USA) or with the different S. suis strains at a multiplicity of infection (MOI) of 0.2. Medium containing S. suis was removed after 2 h and replaced by medium containing 200 µg/mL gentamycin (Sigma) and left for an additional 22 h. After 24 h, medium was collected and stored at −20 °C for cytokine measurements. […] Cells were stained with antibodies (Table 1) for 20 min, washed and measured using aBD FACSCanto-II (BD Biosciences, NJ, USA) and analyzed with FlowJo software (Ashland, OR, USA).

L-CATH-2: natural chicken cathelicidin-2 (RFGRFLRKIRRFRPKVTITIQGSARF-NH2)
Kd [1]: 80 nM

LL-37
survival and bacterial load in septic mice [2]: improved the survival and reduced the bacterial load

CC[C@@H](C)[C@@H](NC(=O)[C@@H](CCCCN)NC(=O)[C@@H](CCCNC(=N)N)NC(=O)[C@@H](CC(C)C)NC(=O)[C@@H](Cc1ccccc1)NC(=O)[C@H](N)CCCNC(=N)N)C(=O)N[C@H](CCCNC(=N)N)C(=O)N[C@H](CCCNC(=N)N)C(=O)N[C@H](Cc1ccccc1)C(=O)N[C@H](CCCNC(=N)N)C(=O)N1CCC[C@@H]1C(=O)N[C@H](CCCCN)C(=O)N[C@@H](C(=O)N[C@@H](C(=O)N[C@@H](C(=O)N[C@@H](C(=O)N[C@@H](C(=O)N[C@H](CCC(N)=O)C(N)=O)[C@H](C)CC)[C@H](C)O)[C@H](C)CC)[C@H](C)O)C(C)C [D-C(4–21)] (H-[dR][dF][dL][dR][dK][dI][dR][dR][dF][dR][dP][dK][dV][dT][dI][dT][dI][dQ]-NH2; N-terminus and C-terminus assumed)
MBC [3]: 5 to 10 µM
MBC [4]: 2.5 to 5 µM
MBC [5]: 1.25 to 2.5 µM
MBC [6]: 2.5 µM (≈ 5.82 µg/mL)
Kd [7]: 2120 nM

CC[C@@H](C)[C@@H](NC(=O)[C@@H](CCCCN)NC(=O)[C@@H](CCCNC(=N)N)NC(=O)[C@@H](CC(C)C)NC(=O)[C@@H](Cc1ccccc1)NC(=O)[C@@H](CCCNC(=N)N)NC(=O)CNC(=O)[C@@H](Cc1ccccc1)NC(=O)[C@H](N)CCCNC(=N)N)C(=O)N[C@H](CCCNC(=N)N)C(=O)N[C@H](CCCNC(=N)N)C(=O)N[C@H](Cc1ccccc1)C(=O)N[C@H](CCCNC(=N)N)C(=O)N1CCC[C@@H]1C(=O)N[C@H](CCCCN)C(=O)N[C@@H](C(=O)N[C@@H](C(=O)N[C@@H](C(=O)N[C@@H](C(=O)N[C@@H](C(=O)N[C@H](CCC(N)=O)C(=O)NCC(=O)N[C@H](CO)C(=O)N[C@H](C)C(=O)N[C@H](CCCNC(=N)N)C(=O)N[C@H](Cc1ccccc1)C(N)=O)[C@H](C)CC)[C@H](C)O)[C@H](C)CC)[C@H](C)O)C(C)C [D-CATH-2] (H-[dR][dF]G[dR][dF][dL][dR][dK][dI][dR][dR][dF][dR][dP][dK][dV][dT][dI][dT][dI][dQ]G[dS][dA][dR][dF]-NH2; N-terminus assumed)
MBC [3]: 2.5 to 5 µM
MBC [4]: 2.5 to 5 µM
MBC [5]: 1.25 to 5 µM
MBC [6]: 1.25 to 2.5 µM
protection of chickens against infection (E. coli): protects chickens up to 7 days post hatch
Kd [7]: 3040 nM

CC[C@@H](C)[C@@H](NC(=O)[C@@H](CCCCN)NC(=O)[C@@H](CCCNC(=N)N)NC(=O)[C@@H](CC(C)C)NC(=O)[C@@H](Cc1ccccc1)NC(=O)[C@@H](CCCNC(=N)N)NC(=O)CNC(=O)[C@@H](Cc1ccccc1)NC(=O)[C@H](N)CCCNC(=N)N)C(=O)N[C@H](CCCNC(=N)N)C(=O)N[C@H](CCCNC(=N)N)C(=O)N[C@H](Cc1ccccc1)C(=O)N[C@H](CCCNC(=N)N)C(=O)N1CCC[C@@H]1C(=O)N[C@H](CCCCN)C(=O)N[C@@H](C(=O)N[C@@H](C(=O)N[C@@H](C(=O)N[C@@H](C(=O)N[C@@H](C(=O)N[C@H](CCC(N)=O)C(N)=O)[C@H](C)CC)[C@H](C)O)[C@H](C)CC)[C@H](C)O)C(C)C [D-C(1–21)] (H-[dR][dF]G[dR][dF][dL][dR][dK][dI][dR][dR][dF][dR][dP][dK][dV][dT][dI][dT][dI][dQ]-NH2; N-terminus and C-terminus assumed)
MBC [3]: 2.5 µM (≈ 6.72 µg/mL)
MBC [4]: 2.5 to 5 µM
MBC [5]: 0.6 to 5 µM
MBC [6]: 2.5 µM (≈ 6.72 µg/mL)
cumulative clinical score (S. suis P1/7; 1 mg/kg s.c., infected 24 h post peptide injection, late stage of disease): small reduction of cumulative clinical score
cumulative clinical score (S. suis P1/7; 1 mg/kg s.c., infected 7 days post peptide injection, acute phase of disease): reduction in cumulative clinical score
survival (S. suis P1/7; 1 mg/kg s.c., infected either 24 h or 7 days post peptide injection): higher chance of survival
bodyweight loss up to 48 h post infection (S. suis P1/7; 1 mg/kg s.c., infected i.p. with 10^7 CFU 24 h or 7 d post peptide injection, same in control mice): approximately 8%
bacteria in the blood 7 days post infection (S. suis P1/7; 24 h D-C(1–21) treated mice): no mice had bacteria left in the bloodstream
number of S. suis positive organs per mouse (S. suis P1/7; 24 h D-C(1–21) treated mice versus untreated, not statistically significant): generally less S. suis positive organs
total CFU counts in organs (S. suis P1/7; 24 h D-C(1–21) treated mice versus untreated, not statistically significant, not found for 7 day treated mice): lower total CFU counts
S. suis bacteria in the bloodstream 24 h post infection (S. suis P1/7; all mice, treated or not): 10^5-10^6 CFU/mL
bacterial counts in organs of mice reaching the HEP (S. suis P1/7; treated mice reaching HEP before the end of the study, especially in the brain): less bacterial counts
BMDM differentiation efficiency, percentage of cells expressing F4/80 at day 6 (murine BMDMs): most pronounced
Kd [7]: 10200 nM
